Reference: patent US20240108740A1, “THERAPEUTIC COMPOSITIONS INCLUDING SPN10 AND USES THEREOF” (Stealth BioTherapeutics Inc., priority 2022, published 2024)
Residues, ends and D or L forms follow the SMILES beside them.

Key:
[1] = system: anatomic zone of no-reflow; assay: No re-flow phenomenon after PCI in humans; type: in vivo, human; conditions: at the time of reperfusion
Protocol: Study group. Men and women, 18 years of age or older, who present within 6 hours after the onset of chest pain, who have ST-segment elevation of more than 0.1 mV in two contiguous leads, and for whom the clinical decision is made to treat with PCI will be eligible for enrollment. Patients will be eligible for the study whether they are undergoing primary PCI or rescue PCI. Occlusion of the affected coronary artery (Thrombolysis in Myocardial Infarction [TIMI] flow grade 0) at the time of admission will also be a criterion for inclusion. Angiography and Revascularization. Left ventricular and coronary angiography will be performed with the use of standard techniques, just before revascularization. […] No re-flow will be assessed by one or more imaging techniques. Re-flow phenomenon will be assessed using myocardial contrast echocardiography, coronary angiography, myocardial blush, coronary doppler imaging, electrocardiography, nuclear imaging single-photon emission CT, using thallium or technetium-99 m, or PET. […] Post-contrast delayed enhancement will be used on day 4±1, day 30±3 and 6+1.5 months after successful PCI and stenting to quantify infracted myocardium. This will be defined quantitatively by an intensity of the myocardial post-contrast signal that is more than 2 SD above that in a reference region of remote, non-infarcted myocardium within the same slice. […]

[2] = system: Caco-2 cells (human intestinal epithelial cells); type: in vitro ADME
Protocol: The cellular uptake of [^3H] SPN10(s) (with or without aromatic-cationic peptides) or [^3H] peptide conjugates will be studied using Caco-2 cells (human intestinal epithelial cells), and confirmed using SH-SY5Y (human neuroblastoma), HEK293 (human embryonic kidney) and CRFK (kidney epithelial) cells. Monolayers of cells will be cultured in 12-well plates (5×10^5 cells/well) coated with collagen for 3 days. On day 4, the cells will be washed twice with pre-warmed HBSS, and incubated with 0.2 mL of HBSS containing 250 nM [^3H] peptide conjugates; [^3H] aromatic-cationic peptides (an equivalent molar dose of aromatic-cationic peptide based on the concentration of the aromatic-cationic peptide administered in the peptide conjugate treatment group); [^3H] SPN10(s) (an equivalent molar dose of SPN10 based on the concentration of SPN10 administered in the peptide conjugate treatment group); or SPN10(s) in combination with aromatic-cationic peptides (e.g., an equivalent molar dose of SPN10 based on the concentration of SPN10 administered in the peptide conjugate treatment group and an equivalent molar dose of aromatic-cationic peptide based on the concentration of aromatic-cationic peptide administered in the peptide conjugate treatment group) at 37° C. or 4° C. for various times up to 1 hour. […] The cell lysates will then be transferred to scintillation vials and radioactivity will be counted. To distinguish between internalized radioactivity and surface-associated radioactivity, an acid-wash step will be included. […] Excitation will be performed at 340 nm by means of a UV laser, and emission will be measured at 520 nm. […]

Structure (SMILES): N=C(N)NCCC[C@H](NC(=O)[C@@H](N)Cc1c[nH]c2ccccc12)C(=O)N[C@@H](Cc1c[nH]c2ccccc12)C(=O)N[C@@H](CCCCN)C(N)=O [SPN10, H-L-Trp-L-Arg-L-Trp-L-Lys-NH2] (H-WRWK-NH2)
- anatomic zone of no-reflow versus placebo [1]: smaller
- rate of uptake at 4° C. compared to 37° C. [2]: slower
- saturation of uptake by 45 minutes [2]: 76.5%
- saturation of uptake by 1 hour [2]: 86.3%
